This is an account of results in the supplement of paper PMC11208160.

The data set in a line: recombinant UMI read abundance after kanamycin selection (control-corrected) (log10(CPM+1)); higher = more efficient recombination; extreme values may be limits of the assay; sequences stand for … in AGTGCAGAGAAAATCGGCCAGTTTTCTCTGCCTGCAGTCCGCATGCCGTGGGACCCCTTGGGTTCTAACCTGTTGCCTAGATTTATGCAGCGGACTGCCTTTCTCCCAAAGTGATAAACCGG…AGGTTGGTTTCACT; site = the 11-nt donor. As to the method: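 Pooled E. coli donor-specificity screen for the IS621 bridge recombinase. Each library member carries a reprogrammed 11-nt donor and a full-length LE bridge RNA expressed in cis from the natural promoter, with a paired donor-binding loop (8-nt LDG + 4-nt RDG) and a target-binding loop fixed to T5. It is co-electroporated with a T5 target plasmid; recombinase is induced with 0.07 mM IPTG and recombinants are selected on kanamycin. UMIs are counted as CPM, averaged over two biological replicates and corrected by the unselected control. Molecule = full bridge RNA written as DNA, built from the T5 scaffold: LDG = donor specificity nt 1-8, RDG = reverse complement of nt 8-11.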
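Further: IS621 bridge recombinase in Escherichia coli cells against a fixed T5 target plasmid.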

Take “AATGTAACATGGACCGGTTTTCCCGGTAATCCGTATTTGAT (site AATGTAACTAT)”: the “recombinant UMI read abundance (log10)” value stood at 2.15.

With “AATGTAACATGGACCGGTTTTCCCGGTAATCCGTATTTGCA (site AATGTAACTAG)”, the “recombinant UMI read abundance (log10)” value was 0.

As to “AATGTAACATGGACCGGTTTTCCCGGTAATCCGTATTTGCA (site AATGTAACTCG)”, the “recombinant UMI read abundance (log10)” value amounted to 0.0207.

On to “AATGTAACATGGACCGGTTTTCCCGGTAATCCGTATTTGCA (site AATGTAACTGG)”, for which the “recombinant UMI read abundance (log10)” value stood at 0.

“AATGTAACATGGACCGGTTTTCCCGGTAATCCGTATTTGCA (site AATGTAACTTG)”: the “recombinant UMI read abundance (log10)” value is 1.78.

As for “AATGTAACATGGACCGGTTTTCCCGGTAATCCGTATTTGCC (site AATGTAACTAG)”, the “recombinant UMI read abundance (log10)” value was found to be 0.

Regarding “AATGTAACATGGACCGGTTTTCCCGGTAATCCGTATTTGCC (site AATGTAACTCG)”, the “recombinant UMI read abundance (log10)” value came to 0.

With “AATGTAACATGGACCGGTTTTCCCGGTAATCCGTATTTGCC (site AATGTAACTGG)”, the “recombinant UMI read abundance (log10)” value was determined as 2.15.

As for “AATGTAACATGGACCGGTTTTCCCGGTAATCCGTATTTGCC (site AATGTAACTTG)”, the “recombinant UMI read abundance (log10)” value stood at 1.34.

Turning to “AATGTAACATGGACCGGTTTTCCCGGTAATCCGTATTTGGT (site AATGTAACTAA)”, the “recombinant UMI read abundance (log10)” value was found to be 0.557.

“AATGTAACATGGACCGGTTTTCCCGGTAATCCGTATTTGGT (site AATGTAACTAC)”: the “recombinant UMI read abundance (log10)” value was 1.36.

Regarding “AATGTAACATGGACCGGTTTTCCCGGTAATCCGTATTTGGT (site AATGTAACTAG)”, the “recombinant UMI read abundance (log10)” value came to 0.

Take “AATGTAACATGGACCGGTTTTCCCGGTAATCCGTATTTGGT (site AATGTAACTAT)”: the “recombinant UMI read abundance (log10)” value was 0.468.

Regarding “AATGTAGCATGGACCGGTTTTCCCGGTAATCCGTATTTGCT (site AATGTAACTAG)”, the “recombinant UMI read abundance (log10)” value came to 0.

In the case of “AATGTAGCATGGACCGGTTTTCCCGGTAATCCGTATTTGCT (site AATGTACCTAG)”, the “recombinant UMI read abundance (log10)” value was found to be 0.

As to “AATGTAGCATGGACCGGTTTTCCCGGTAATCCGTATTTGCT (site AATGTAGCTAG)”, the “recombinant UMI read abundance (log10)” value came out at 1.55.

Take “AATGTAGCATGGACCGGTTTTCCCGGTAATCCGTATTTGCT (site AATGTATCTAG)”: the “recombinant UMI read abundance (log10)” value amounted to 0.516.

Turning to “AATGTATCATGGACCGGTTTTCCCGGTAATCCGTATTTGAC (site AATGTATCTGT)”, the “recombinant UMI read abundance (log10)” value is 3.11.

“AATGTATCATGGACCGGTTTTCCCGGTAATCCGTATTTGAC (site AATGTCTCTGT)”: the “recombinant UMI read abundance (log10)” value amounted to 0.

On to “AATGTATCATGGACCGGTTTTCCCGGTAATCCGTATTTGAC (site AATGTGTCTGT)”, for which the “recombinant UMI read abundance (log10)” value is 0.

For the sequence “AATGTATCATGGACCGGTTTTCCCGGTAATCCGTATTTGAC (site AATGTTTCTGT)”, the “recombinant UMI read abundance (log10)” value stood at 0.

In the case of “AATGTCGCATGGACCGGTTTTCCCGGTAATCCGTATTTGGT (site AATGTCGCTAC)”, the “recombinant UMI read abundance (log10)” value amounted to 1.19.

Consider “AATGTGCCATGGACCGGTTTTCCCGGTAATCCGTATTTGAC (site AATGTGACTGT)”, for which the “recombinant UMI read abundance (log10)” value amounted to 0.

For “AATGTGCCATGGACCGGTTTTCCCGGTAATCCGTATTTGAC (site AATGTGCCTGT)”, the “recombinant UMI read abundance (log10)” value is 0.

“AATGTGCCATGGACCGGTTTTCCCGGTAATCCGTATTTGAC (site AATGTGGCTGT)”: the “recombinant UMI read abundance (log10)” value was determined as 0.

“AATGTGCCATGGACCGGTTTTCCCGGTAATCCGTATTTGAC (site AATGTGTCTGT)”: the “recombinant UMI read abundance (log10)” value was 0.

Regarding “AATGTGCCATGGACCGGTTTTCCCGGTAATCCGTATTTGCT (site AATGTGCCTAG)”, the “recombinant UMI read abundance (log10)” value came out at 0.0116.

As for “AATGTGTCATGGACCGGTTTTCCCGGTAATCCGTATTTGCC (site AATGTGTCTGA)”, the “recombinant UMI read abundance (log10)” value was 0.

“AATGTGTCATGGACCGGTTTTCCCGGTAATCCGTATTTGCC (site AATGTGTCTGC)”: the “recombinant UMI read abundance (log10)” value was 0.

On to “AATGTGTCATGGACCGGTTTTCCCGGTAATCCGTATTTGCC (site AATGTGTCTGG)”, for which the “recombinant UMI read abundance (log10)” value was determined as 2.81.

Turning to “AATGTGTCATGGACCGGTTTTCCCGGTAATCCGTATTTGCC (site AATGTGTCTGT)”, the “recombinant UMI read abundance (log10)” value stood at 2.16.

In the case of “AATGTTACATGGACCGGTTTTCCCGGTAATCCGTATTTGCT (site AATGTAACTAG)”, the “recombinant UMI read abundance (log10)” value came out at 1.05.

As for “AATGTTACATGGACCGGTTTTCCCGGTAATCCGTATTTGCT (site AATGTCACTAG)”, the “recombinant UMI read abundance (log10)” value amounted to 1.13.

In the case of “AATGTTACATGGACCGGTTTTCCCGGTAATCCGTATTTGCT (site AATGTGACTAG)”, the “recombinant UMI read abundance (log10)” value worked out at 0.00476.

With “AATGTTACATGGACCGGTTTTCCCGGTAATCCGTATTTGCT (site AATGTTACTAG)”, the “recombinant UMI read abundance (log10)” value amounted to 2.3.

Turning to “AATTAAGCATGGACCGGTTTTCCCGGTAATCCGTATTTGGA (site AATTAAGCTTC)”, the “recombinant UMI read abundance (log10)” value worked out at 0.894.

Turning to “AATTAAGCATGGACCGGTTTTCCCGGTAATCCGTATTTGGA (site AATTACGCTTC)”, the “recombinant UMI read abundance (log10)” value came to 0.395.

As to “AATTAAGCATGGACCGGTTTTCCCGGTAATCCGTATTTGGA (site AATTAGGCTTC)”, the “recombinant UMI read abundance (log10)” value amounted to 0.648.

On to “AATTAAGCATGGACCGGTTTTCCCGGTAATCCGTATTTGGA (site AATTATGCTTC)”, for which the “recombinant UMI read abundance (log10)” value is 0.412.

As for “AATTATCCATGGACCGGTTTTCCCGGTAATCCGTATTTGCT (site AATTATCCTAG)”, the “recombinant UMI read abundance (log10)” value is 0.673.

Turning to “AATTATCCATGGACCGGTTTTCCCGGTAATCCGTATTTGCT (site CATTATCCTAG)”, the “recombinant UMI read abundance (log10)” value stood at 0.041.

As to “AATTATCCATGGACCGGTTTTCCCGGTAATCCGTATTTGCT (site GATTATCCTAG)”, the “recombinant UMI read abundance (log10)” value was found to be 0.232.

In the case of “AATTATCCATGGACCGGTTTTCCCGGTAATCCGTATTTGCT (site TATTATCCTAG)”, the “recombinant UMI read abundance (log10)” value is 0.201.

Regarding “AATTATGCATGGACCGGTTTTCCCGGTAATCCGTATTTGGC (site AATTATGCTAC)”, the “recombinant UMI read abundance (log10)” value was 0.00687.

Turning to “AATTATGCATGGACCGGTTTTCCCGGTAATCCGTATTTGGC (site AATTATGCTCC)”, the “recombinant UMI read abundance (log10)” value was 0.0199.

As to “AATTATGCATGGACCGGTTTTCCCGGTAATCCGTATTTGGC (site AATTATGCTGC)”, the “recombinant UMI read abundance (log10)” value was 1.33.

For “AATTATGCATGGACCGGTTTTCCCGGTAATCCGTATTTGGC (site AATTATGCTTC)”, the “recombinant UMI read abundance (log10)” value was 0.332.

As for “AATTCTTCATGGACCGGTTTTCCCGGTAATCCGTATTTGTA (site AATTCTTCTTA)”, the “recombinant UMI read abundance (log10)” value was determined as 1.04.

Turning to “AATTTACCATGGACCGGTTTTCCCGGTAATCCGTATTTGGC (site AATTTACCTGC)”, the “recombinant UMI read abundance (log10)” value came out at 0.

Take “ACAAAGACATGGACCGGTTTTCCCGGTAATCCGTATTTGAG (site ACAAAGACTCT)”: the “recombinant UMI read abundance (log10)” value came to 2.49.

In the case of “ACAAGTTCATGGACCGGTTTTCCCGGTAATCCGTATTTGTG (site ACAAGTTCTCA)”, the “recombinant UMI read abundance (log10)” value was 2.42.

In the case of “ACAATAACATGGACCGGTTTTCCCGGTAATCCGTATTTGCA (site ACAATAACTTG)”, the “recombinant UMI read abundance (log10)” value turned out to be 2.65.

Take “ACAATAACATGGACCGGTTTTCCCGGTAATCCGTATTTGCA (site ACAGTATCTTG)”: the “recombinant UMI read abundance (log10)” value was 1.03.

Regarding “ACAATATCATGGACCGGTTTTCCCGGTAATCCGTATTTGGA (site ACAATATCTTC)”, the “recombinant UMI read abundance (log10)” value came to 2.07.

For the sequence “ACAATATCATGGACCGGTTTTCCCGGTAATCCGTATTTGGA (site ACAGTATCTTG)”, the “recombinant UMI read abundance (log10)” value stood at 0.

Consider “ACACACCCATGGACCGGTTTTCCCGGTAATCCGTATTTGAC (site ACACAACCTGT)”, for which the “recombinant UMI read abundance (log10)” value was 0.

Regarding “ACACACCCATGGACCGGTTTTCCCGGTAATCCGTATTTGAC (site ACACACCCTGT)”, the “recombinant UMI read abundance (log10)” value amounted to 0.957.

“ACACACCCATGGACCGGTTTTCCCGGTAATCCGTATTTGAC (site ACACAGCCTGT)”: the “recombinant UMI read abundance (log10)” value came to 0.

Regarding “ACACACCCATGGACCGGTTTTCCCGGTAATCCGTATTTGAC (site ACACATCCTGT)”, the “recombinant UMI read abundance (log10)” value stood at 0.471.

Turning to “ACACATACATGGACCGGTTTTCCCGGTAATCCGTATTTGAC (site ACACATACTGT)”, the “recombinant UMI read abundance (log10)” value came out at 2.71.

As for “ACACATACATGGACCGGTTTTCCCGGTAATCCGTATTTGAC (site ACACATCCTGT)”, the “recombinant UMI read abundance (log10)” value was 0.

In the case of “ACACATACATGGACCGGTTTTCCCGGTAATCCGTATTTGAC (site ACACATGCTGT)”, the “recombinant UMI read abundance (log10)” value came out at 1.74.

Regarding “ACACATACATGGACCGGTTTTCCCGGTAATCCGTATTTGAC (site ACACATTCTGT)”, the “recombinant UMI read abundance (log10)” value was determined as 0.554.

In the case of “ACACATCCATGGACCGGTTTTCCCGGTAATCCGTATTTGCC (site ACACATCCTGA)”, the “recombinant UMI read abundance (log10)” value is 1.25.

As for “ACACATCCATGGACCGGTTTTCCCGGTAATCCGTATTTGCC (site ACACATCCTGC)”, the “recombinant UMI read abundance (log10)” value is 0.
